# Source: patent publication US20110301146A1 (ONCOTHERAPY SCIENCE, INC., priority 2008, published 2011)
# Biological target: T1, GSK-3beta (Homo sapiens, UniProt P49841)
# T1 construct: purchased Invitrogen
# Assay: Z'-LYTE kinase assay (FRET, SER/THR 9 peptide)
# Assay type: biochemical
# Conditions: 0.04 ng/micro-l GSK-3beta (Invitrogen), 2 micro-M SER/THR 9 peptide, 15 micro-M ATP, 1 hour at room temperature, 1% DMSO
# Procedure: The Z′-LYTE kinase assay kit employs a fluorescence resonance energy transfer (FRET) between two fluorophores, coumarin and fluorescein, attached to each end of a substrate peptide.
# For 0% phosphorylation control, ATP was omitted from the reaction mixture. For 100% phosphorylation control, SER/THR 9 phosphopeptide was used in place of the SER/THR 9 peptide. Following 1 hour incubation at room temperature, the reaction was stopped by the addition of half assay volume of development solution and further incubated for 1 hour at room temperature. […] The extent of phosphorylation was determined according to the 0% and 100% phosphorylation control samples using the following equation: […]
# IC50 values were calculated by nonlinear four parameter fit using SigmaPlot, version 10.0 (Systat Software, Inc.).
# T1 sequence (P49841 whole entry): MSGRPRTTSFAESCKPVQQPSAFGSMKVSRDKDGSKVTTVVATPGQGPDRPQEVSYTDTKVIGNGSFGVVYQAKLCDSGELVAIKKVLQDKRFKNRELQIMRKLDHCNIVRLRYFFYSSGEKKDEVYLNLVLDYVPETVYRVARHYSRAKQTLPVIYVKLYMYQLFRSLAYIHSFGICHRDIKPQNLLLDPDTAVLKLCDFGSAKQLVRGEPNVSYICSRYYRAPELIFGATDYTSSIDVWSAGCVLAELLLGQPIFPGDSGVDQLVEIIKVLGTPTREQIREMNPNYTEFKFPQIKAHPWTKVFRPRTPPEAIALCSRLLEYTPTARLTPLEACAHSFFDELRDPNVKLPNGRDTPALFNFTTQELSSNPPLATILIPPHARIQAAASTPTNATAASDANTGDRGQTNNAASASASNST
row,Structure (SMILES),IC50
1,"O=C(NCC1CCCNC1)c1ccc(O)c2[nH]c(C3CCCC3)nc12 (centres unmarked) [Example 15, 2-Cyclopentyl-4-hydroxy-N-(piperidin-3-ylmethyl)-1H-benzo[d]imidazole-7-carboxamide]",130 nM
2,"NC1CCCC(NC(=O)c2ccc(O)c3[nH]c(C4CC5CCC4C5)nc23)C1 (centres unmarked) [Example 55, N-(3-Aminocyclohexyl)-2-(bicyclo[2.2.1]heptan-2-yl)-7-hydroxy-1H-benzo[d]imidazole-4-carboxamide]",250 nM
